The results in this text go back to US20040106093A1, “Myb-transformed blood cells and their use for active ingredient screening” (priority 2001, published 2004).

Format in all cases: cell-based, chicken
The test system of experiment [1] is bFGF/v-myb-cells. Briefly: Proliferation assay of bFGF-stimulated bFGF/v-myb-cells with specific signalling inhibitors (3H-thymidine incorporation). The following applies: bFGF 25 ng/ml, FIG. 5B; for reduction of bFGF induced bFGF/v-myb cell proliferation: GF 109203X 10 nM, Cyclosporin A 10 nM, KN-62 1 μM (methods); for effect on bFGF induced bFGF/v-myb cell proliferation: proliferation without inhibitor set 100%, C. As to the method:
(§1) Cell proliferation was measured as ratio of DNA-synthesis by ^3H-thymidin-incorporation or use CellTiter96® (Promega). Briefly, the cells (4×10^4 cells/100 μl) were incubated in CFU-E-Medium (see above) with 0.8 μCi ^3H-thymidine (specific activity 29 Ci/mmol; Amersham, UK) for 2 hours at 37° C., brought onto filter plates and subjected to scintillation counting. The average values from triplicate samples were determined. The Celltiter96 MTS-assay was for 2 hours. Heparin (B. Braun, Melsungen, Germany) was used at 5 μg/ml. Inhibitors were used at the following concentrations: PD98059 (5 μM), PP2 (100 nM), U-73122 (1 μM), Worthmannin (100 nM), Cyclosporin A (10 nM), GF 109203X (10 nM) and KN-62 (1 μM) (all from Calbiochem).
(B) The bFGF/v-myb-cells were stimulated with bFGF and with specific inhibitors (for details see methods). Cell proliferation was measured in (A) per cent of proliferation in response to bFGF (25 ng/ml) and specific inhibitor is shown. Proliferation without inhibitor was arbitrarily set 100%.
(C) Dose response curve of the PLCy inhibitor U-73122 on bFGF/v-myb-cells in the presence of bFGF (25 ng/ml). Cell proliferation was measured by ^3H-thymidine incorporation assay as in (A). Two independent experiments arc shown.
(In general: Uptake of a labelled nucleoside into DNA is a usual measure of proliferation.)

Experiment [2] deals with bFGF/v-myb-cells. The experiment in a line: FGF dose response in cell proliferation assay (MTT / 3H-thymidine incorporation). The note with it: for proliferative (mitogenic) response in the presence of heparin: heparin 5 μg/ml, 3H-thymidine incorporation, FIG. 5A; for stimulation of bFGF/v-myb-cell proliferation: serial dilutions starting at 100 ng/ml, without heparin, FIG. 4. As to the method: as §1
FGF—dose response measured by cell proliferation assay (MTT). Serial dilutions of aFGF and bFGF, respectively, starting at 100 ng/ml are shown.
(A) Dose response curve of aFGF and bFGF in the presence or absence of heparin is shown. Cell proliferation was measured by ^3H-thymidine incorporation assay.

The subject of experiment [3] is blastoderm derived bFGF/v-myb-cells. Briefly: Growth factor requirements of blastoderm derived v-myb cells in culture. The following applies: bFGF 25 ng/ml, SCF 100 ng/ml, TGFα 5 ng/ml; factor alone; FIG. 2B. As to the method: Blastoderm-derived cells (2 days incubation, Hamilton-stage HH 10-12) and bone marrow cells ([…]) were cocultivated for 2 days with a mitomycin C-treated virus or control (non-infected)-CEF in a CFU-E-medium (Beug et al., 1995, Methods Enzymol, 254, 41-76) containing bFGF (25 ng/ml, Promega), chicken-SCF (100 ng/ml; Bartunek et al., 1996, Cytokine, 8, 14-20), TGFα (5 ng/ml, Promega) or different combinations thereof, or no factors. After 2 days nonadherent cells were regenerated and cells were grown at 2×10^6 cells/ml. An outgrowth of myb transformed cells was routinely observed at day 5-7 and cell numbers were determined in regular time intervals using the cell counter and analyser system CASY-1 (Scharfe System, Reutlingen, Germany).
(B) Growth factor requirements of bFGF/v-myb-cells. The cumulative number of cells gown with various factors and combinations thereof are shown. Closed and open symbols refer to cells with an erythroid and myeloid phenotype, respectively.

Experiment [4] deals with bFGF/v-myb-cells. The experiment in a line: Erythroid differentiation assay (anaemic serum plus insulin). The method, then:
To produce erythroid differentiation, cells were incubated in CFU-E-medium without ChS (2×10^6 cells/ml) supplemented with 3% anaemic chicken serum (as source for erythropoietin) plus 10 ng/ml recombinant human insulin (Novo Nordisk) in the presence or absence of 25 ng/ml bFGF. Erythroid differentiation was assessed by (1) determining haemoglobin accumulation in cytospin preparations that stained with neutral, and Diff-Quik (Baxter, Switzerland), or in haemoglobin assay (Beug et al., 1995, Methods Enzymol, 254, 41-76) (2), measuring reduction in cell size with the CASY-1 Cell Counter and Analyser System; and (3) loss of proliferative potential in ^3H-thymidine incorporation assays. Photographs were taken and processed as above.
Differentiation properties of bFGF/v-myb erythroid progenitor cells. Kinetics of the different differentiation parameters of bFGF/v-myb-cells. The number of cells, the cell volume, and the amount of haemoglobin were estimated during the 4-day differentiation in absence (AS, Ins) or presence of bFGF (AS, Ins+bFGF) or without factor (no). The cells remaining in bFGF are only shown as a control (bFGF).

Setting [5] is: differentiation induction in the presence of bFGF, FIG. 3.

Turning to `CN([C@@H](Cc1ccc(OS(=O)(=O)c2cccc3cnccc23)cc1)C(=O)N1CCN(c2ccccc2)CC1)S(=O)(=O)c1cccc2cnccc12` [KN-62], the “reduction of bFGF induced bFGF/v-myb cell proliferation” value (“reduction” for short) in experiment [1] was “Sixty per cent”.
As to `COC[C@H]1OC(=O)c2coc3c2[C@@]1(C)C1=C(C3=O)[C@@H]2CCC(=O)[C@@]2(C)C[C@H]1OC(C)=O` [Worthmannin], the “effect on bFGF induced bFGF/v-myb cell proliferation” value (from here on “effect”) in experiment [1] is given as “ineffective”.
`COc1ccc2c(c1)CC[C@@H]1[C@@H]2CC[C@]2(C)[C@@H](NCCCCCCN3C(=O)C=CC3=O)CC[C@@H]12` [U-73122]: in experiment [1], the “effect” value is reported as “dramatically reduced”.
Consider “bFGF: growth factor bFGF (basis fibroblast growth factor)”, for which, in experiment [2], the “proliferative (mitogenic) response in the presence of heparin” value is given as “no further increase” and the “stimulation of bFGF/v-myb-cell proliferation” value was “induced a maximal stimulation”. The “phenotype / outgrowth of v-myb cells with growth factor” value in experiment [3] is given as “proliferating erythroid bFGF/v-myb-cells were obtained only in the presence of bFGF”. Further, in experiment [4] (differentiation induced by anaemic serum and insulin in the presence of 25 ng/ml bFGF), the “ability to undergo terminal erythroid differentiation” value is “completely blocked”. In experiment [4] (setting [5]), the cell volume entry is recorded as “approximately 500 μl” and the haemoglobin accumulation result is listed as “did not accumulate haemoglobin”.
On to `CN(C)CCCn1cc(C2=C(c3c[nH]c4ccccc34)C(=O)NC2=O)c2ccccc21` [GF109203X], for which the “reduction” value in experiment [1] is 30%.
As for `COc1cccc(-c2cc(=O)c3ccccc3o2)c1N` [PD 98059], the “effect” value in experiment [1] is on record as “partially inhibitory only at higher concentrations”.
Turning to “aFGF: acidic FGF, FGF-1, member of the FGF family”, in experiment [2], the “proliferative (mitogenic) response in the presence of heparin” value is given as “clear enhancement” and the “stimulation of bFGF/v-myb-cell proliferation” value is “only marginally if at all”.
Regarding `CC(C)=CCC/C(C)=C/CC/C(C)=C/CSc1ccccc1C(=O)O` [FTS], the “effect” value in experiment [1] is “neither Ras inhibitor FTS (inhibitor of famesylation) nor src family inhibitor PP-2 had any effect”.
Regarding TGFα: growth factor TGFα, the “phenotype / outgrowth of v-myb cells with growth factor” value in experiment [3] is “outgrowth exclusively of myeloid cells”.
With `CC1(C)C(C=C(Cl)Cl)C1C(=O)OC(C#N)c1cccc(Oc2ccccc2)c1` (centres unmarked) [cypermethrin], the “reduction” value in experiment [1] worked out at 45%.
The same measure, in the same setting: next, cyclosporine A: 45%.
